Source: US10618916B2, “Heterocyclic compounds as immunomodulators” (Incyte Corporation, priority 2018, dated 2020)

Columns and labels:
[1] = biological target: PD-1/PD-L1 protein/protein interaction (recombinant human PD-L1 and human PD-1) (Homo sapiens (Human), UniProt Q9NZQ7); experiment: Homogeneous Time-Resolved Fluorescence (HTRF) PD-1/PD-L1 binding assay
Method in brief: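 Human PD-L1 (19-238, C-His; 10 nM final) and PD-1 (25-167, C-Fc; 3 nM final) preincubated 40 min with inhibitor in PBS pH 7.4, 0.05% Tween-20, 0.1% BSA, 1% DMSO, 25 °C. Eu-anti-human IgG (1 nM) and anti-His-APC (20 nM) added for 60 min; 665/620 nm ratio; IC50 from percent-control curves.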

[2] = test system: U2OS/PD-L1 cells and Jurkat-PD-1-SHP cells; experiment: Src homology region 2 domain-containing phosphatase (SHP) assay; type: cell-based; details: Homo sapiens, U2OS
Method in brief: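 U2OS/PD-L1 and Jurkat-PD-1-SHP cells (5000 each per well) were co-incubated with compound for 2 h at 37 °C in RPMI1640 with 1% FBS, 0.05% DMSO final. PathHunter chemiluminescence was read after 1 h at room temperature, and IC50 was fitted from percent of DMSO-control activity.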

[3] = test system: PD-L1 aAPC/CHO-K1 cells and Jurkat-PD-1-NFAT effector cells; experiment: Nuclear factor of activated T-cells (NFAT) assay; type: cell-based; details: Cricetulus griseus, CHO-K1
Method in brief: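 CHO-K1 cells expressing PD-L1 aAPC were co-cultured with Jurkat-PD-1-NFAT effector cells in RPMI 1640 with 1% FBS and compound (0.4% DMSO; top concentration 2 μM) for 24 h at 37 °C. Bio-Glo luminescence was read, fold induction normalised to DMSO wells, and EC50 fitted from percent of control compound activity.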

PD-L1 = PD-L1 (Homo sapiens (Human), UniProt Q9NZQ7); experiment: PD-L1 whole blood internalization assay; type: cell-based; details: 24 HR, PD-L1 expression on CD14+ cells, human interferon γ
Sequence of PD-L1 (Q9NZQ7 19-290): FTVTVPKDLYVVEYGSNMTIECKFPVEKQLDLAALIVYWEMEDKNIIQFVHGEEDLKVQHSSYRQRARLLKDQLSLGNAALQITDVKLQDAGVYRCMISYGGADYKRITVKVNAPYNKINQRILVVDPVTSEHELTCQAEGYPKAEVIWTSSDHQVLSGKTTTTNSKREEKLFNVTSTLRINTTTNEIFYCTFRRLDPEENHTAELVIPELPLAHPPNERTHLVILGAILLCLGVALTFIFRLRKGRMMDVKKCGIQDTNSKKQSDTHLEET
Protocol: Example D. PD-L1 Whole Blood Internalization Assay
To determine PD-L1 internalization in human whole blood, normal human blood (Biological Specialty Corp, Colmar. Pa.) was incubated in the presence or absence of a concentration range of test compounds and 1 ng/ml human interferon γ (R&D Systems Inc. Minn. […] Blood was then stained with PD-L1 (MIH1, eBioscience; or BD Biosciences San Jose, Calif.), CD14 (Life Technologies, Carlsbad, Calif.) for 30 minutes in the dark at room temperature. Whole Blood/red cells were lysed/fixed (lysis buffer BD Biosciences) for 5 minutes at 37° C. in the dark and then centrifuged at 1600 RPM for 5 minutes. Cells were resuspended in Stain Buffer (BD Bioscience, San Jose, Calif.) and transferred into 96 well round bottom plates (Corning). Cells were gated on CD14+(BD Biosciences) and PD-L1 expression determined by mean fluorescence intensity (MFI) (BD LSRFortessa™ X-20). IC50 determination was performed by fitting the curve of compound percent inhibition versus the log of the compound concentration using the GraphPad Prism 7.0 software.

Sequence of PD-1/PD-L1 protein/protein interaction (recombinant human PD-L1 and human PD-1) (Q9NZQ7 19-238): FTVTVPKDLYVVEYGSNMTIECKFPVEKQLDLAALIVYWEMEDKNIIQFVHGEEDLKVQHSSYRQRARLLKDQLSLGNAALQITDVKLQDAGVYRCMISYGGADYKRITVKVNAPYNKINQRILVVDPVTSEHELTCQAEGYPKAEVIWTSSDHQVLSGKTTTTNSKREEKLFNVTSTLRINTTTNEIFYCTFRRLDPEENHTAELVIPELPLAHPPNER

SMILES	IC50 [1] [nM]	IC50 [2] [nM]	EC50 [3] [nM]	IC50 (PD-L1) [nM]
Cn1c(C(=O)Nc2cccc(-c3cccc(NC(=O)c4nc5c(n4C)CCN(CC46CC(C(=O)O)(C4)C6)C5)c3Cl)c2Cl)nc2c1CCN(CCC13CCC(C(=O)O)(CC1)C3)C2 [Example 24, 3-((2-((3′-(5-(2-(4-carboxybicyclo[2.2.1]heptan-1-yl)ethyl)-1-methyl-4,5,6,7-tetrahydro-1H-imidazo[4,5-c]pyridine-2-carboxamido)-2,2′-dichloro-[1,1′-biphenyl]-3-yl)carbamoyl)-1-methyl-1,4,6,7-tetrahydro-5H-imidazo[4,5-c]pyridin-5-yl)methyl)bicyclo[1.1.1]-pentane-1-carboxylic acid]	≤ 5	≤ 10	10 to 100	10 to 100
Cc1c(NC(=O)c2nc3c(n2C)CCN(CCC24CCC(C(=O)O)(CC2)C4)C3)cccc1-c1cccc(NC(=O)c2nc3c(n2C)CCN(C2CCN(C(N)=O)CC2)C3)c1Cl [Example 40, 4-(2-(2-((3′-(5-(1-carbamoylpiperidin-4-yl)-1-methyl-4,5,6,7-tetrahydro-1H-imidazo[4,5-c]pyridine-2-carboxamido)-2′-chloro-2-methyl[1,1′-biphenyl]-3-yl)carbamoyl)-1-methyl-1,4,6,7-tetrahydro-5H-imidazo[4,5-c]pyridin-5-yl)ethyl)bicyclo[2.2.1]heptane-1-carboxylic acid]	≤ 5	≤ 10	10 to 100	10 to 100
Cc1c(NC(=O)c2nc3c(n2C)CCN(CCC24CCC(C(=O)O)(CC2)C4)C3)cccc1-c1cccc(NC(=O)c2nc3c(n2C)CCNC3)c1Cl [Example 37, 4-(2-(2-((2′-chloro-2-methyl-3′-(1-methyl-4,5,6,7-tetrahydro-1H-imidazo[4,5-c]pyridine-2-carboxamido)-[1,1′-biphenyl]-3-yl)carbamoyl)-1-methyl-1,4,6,7-tetrahydro-5H-imidazo[4,5-c]pyridin-5-yl)ethyl)bicyclo[2.2.1]heptane-1-carboxylic Acid]	≤ 5	≤ 10	10 to 100	10 to 100
Cn1c(C(=O)Nc2cccc(-c3cccc(NC(=O)c4nc5c(n4C)CCN(C(CO)CO)C5)c3Cl)c2Cl)nc2c1CCN(CCC13CCC(C(=O)O)(CC1)C3)C2 [Example 10, 4-(2-(2-((2,2′-dichloro-3′-(5-(1,3-dihydroxypropan-2-yl)-1-methyl-4,5,6,7-tetrahydro-1H-imidazo[4,5-c]pyridine-2-carboxamido)-[1,1′-biphenyl]-3-yl)carbamoyl)-1-methyl-1,4,6,7-tetrahydro-5H-imidazo[4,5-c]pyridin-5-yl)ethyl)bicyclo[2.2.1]heptane-1-carboxylic acid]	≤ 5	≤ 10	10 to 100	10 to 100
Cn1c(C(=O)Nc2cccc(-c3cccc(NC(=O)c4nc5c(n4C)CCN(CCC46CCC(C(=O)O)(CC4)C6)C5)c3Cl)c2Cl)nc2c1CCN(CCC13CCC(C(=O)O)(CC1)C3)C2 [Example 17, 4,4′-(((((2,2′-dichloro-[1,1′-biphenyl]-3,3′-diyl)bis(azanediyl))bis(carbonyl))bis(1-methyl-1,4,6,7-tetrahydro-5H-imidazo[4,5-c]pyridine-2,5-diyl))bis(ethane-2,1-diyl))bis(bicyclo[2.2.1]heptane-1-carboxylic acid)]	≤ 5	≤ 10	10 to 100	10 to 100
Cn1c(C(=O)Nc2cccc(-c3cccc(NC(=O)c4nc5c(n4C)CCN(Cc4cc[nH]n4)C5)c3Cl)c2Cl)nc2c1CCN(CCC13CCC(C(=O)O)(CC1)C3)C2 [Example 9, 4-(2-(2-((3′-(5-((1H-pyrazol-3-yl)methyl)-1-methyl-4,5,6,7-tetrahydro-1H-imidazo[4,5-c]pyridine-2-carboxamido)-2,2′-dichloro-[1,1′-biphenyl]-3-yl)carbamoyl)-1-methyl-1,4,6,7-tetrahydro-5H-imidazo[4,5-c]pyridin-5-yl)ethyl)bicyclo[2.2.1]heptane-1-carboxylic acid]	≤ 5	≤ 10	10 to 100	10 to 100
Cn1c(C(=O)Nc2cccc(-c3cccc(NC(=O)c4nc5c(n4C)CCN(CC(C)(C)C(=O)O)C5)c3Cl)c2Cl)nc2c1CCN(CCC13CCC(C(=O)O)(CC1)C3)C2 [Example 21, 4-(2-(2-((3′-(5-(2-carboxy-2-methylpropyl)-1-methyl-4,5,6,7-tetrahydro-1H-imidazo[4,5-c]pyridine-2-carboxamido)-2,2′-dichloro-[1,1′-biphenyl]-3-yl)carbamoyl)-1-methyl-1,4,6,7-tetrahydro-5H-imidazo[4,5-c]pyridin-5-yl)ethyl)bicyclo[2.2.1]heptane-1-carboxylic acid]	≤ 5	≤ 10	10 to 100	10 to 100
Cc1c(NC(=O)c2nc3c(n2C)CCN(CCc2ccc(C(=O)O)cc2)C3)cccc1-c1cccc(NC(=O)c2nc3c(n2C)CCN(CCC24CCC(C(=O)O)(CC2)C4)C3)c1Cl [Example 36, 4-(2-(2-((3′-(5-(4-carboxyphenethyl)-1-methyl-4,5,6,7-tetrahydro-1H-imidazo[4,5-c]pyridine-2-carboxamido)-2-chloro-2′-methyl-[1,1′-biphenyl]-3-yl)carbamoyl)-1-methyl-1,4,6,7-tetrahydro-5H-imidazo[4,5-c]pyridin-5-yl)ethyl)bicyclo[2.2.1]heptane-1-carboxylic acid]	≤ 5	≤ 10	10 to 100	10 to 100
Cc1c(NC(=O)c2nc3c(n2C)CCNC3)cccc1-c1cccc(NC(=O)c2nc3c(n2C)CCN(CCC24CCC(C(=O)O)(CC2)C4)C3)c1Cl [Example 27, 4-(2-(2-((2-chloro-2′-methyl-3′-(1-methyl-4,5,6,7-tetrahydro-1H-imidazo[4,5-c]pyridine-2-carboxamido)-[1,1′-biphenyl]-3-yl)carbamoyl)-1-methyl-1,4,6,7-tetrahydro-5H-imidazo[4,5-c]pyridin-5-yl)ethyl)bicyclo[2.2.1]heptane-1-carboxylic Acid]	≤ 5	≤ 10	10 to 100	10 to 100
Cn1c(C(=O)Nc2cccc(-c3cccc(NC(=O)c4nc5c(n4C)CCN(CCC46CCC(C(=O)O)(CC4)C6)C5)c3Cl)c2Cl)nc2c1CCN(CCCC(=O)O)C2 [Example 20, 4-(2-(2-((3′-(5-(3-carboxypropyl)-1-methyl-4,5,6,7-tetrahydro-1H-imidazo[4,5-c]pyridine-2-carboxamido)-2,2′-dichloro-[1,1′-biphenyl]-3-yl)carbamoyl)-1-methyl-1,4,6,7-tetrahydro-5H-imidazo[4,5-c]pyridin-5-yl)ethyl)bicyclo[2.2.1]heptane-1-carboxylic acid]	≤ 5	≤ 10	10 to 100	10 to 100
Cn1c(C(=O)Nc2cccc(-c3cccc(NC(=O)c4nc5c(n4C)CCN(CC46CCC(C(=O)O)(CC4)CC6)C5)c3Cl)c2Cl)nc2c1CCN(CCC13CCC(C(=O)O)(CC1)C3)C2 [Example 23, 4-((2-((3′-(5-(2-(4-carboxybicyclo[2.2.1]heptan-1-yl)ethyl)-1-methyl-4,5,6,7-tetrahydro-1H-imidazo[4,5-c]pyridine-2-carboxamido)-2,2′-dichloro-[1,1′-biphenyl]-3-yl)carbamoyl)-1-methyl-1,4,6,7-tetrahydro-5H-imidazo[4,5-c]pyridin-5-yl)methyl)bicyclo[2.2.2]octane-1-carboxylic acid]	≤ 5	≤ 10	10 to 100	100 to 500
